In brackets after ≈: the same amount, converted by molar mass.

Data on eight compounds can be found in patent US20210137961A1, “Compositions and Methods for Treating Dry Eye Diseases” (priority 2017, published 2021).

For one assay, the system named is P. acnes. As to the kind of experiment: MIC against P. acnes. Conditions: for MIC50 / MIC90: Cutibacterium acnes. The format is cell-based.
The test system of assay [1] is Immortalized human meibomian gland epithelial cells (HMGECs). Briefly: HMGEC lysosome and neutral lipid accumulation, differentiation and proliferation. Conditions: meibomian gland epithelial cells. The format is cell-based. As for the experimental part: EXAMPLE. Immortalized human meibomian gland epithelial cells (HMGECs) are cultured in the presence of vehicle or test compound, such as Soli (2, 10, or 20 μg/ml) for 1 to 7 days under proliferating (keratinocyte serum-free medium; KSFM) or differentiating (DMEM/F12 plus 10% fetal bovine serum) conditions. A positive control (epidermal growth factor and bovine pituitary extract for proliferation; Azi for differentiation) and a negative control (media only) are included with the experiments. Additional details are described in JAMA Ophthalmol 132(2): 226-228 (Feb. 1, 2014) and Current Eye Research, 1-6 (2017), each of which is incorporated herein by reference.
HMGECs are evaluated for cell number, neutral lipid content (LipidTox) and lysosome accumulation (LysoTracker). […] Strong lysosomal effects are observed with the 10 μg/ml dose of Soli (relative stimulation=30), on the first day of dosing, and those effects are statistically different (p<0.01) from the control group (relative stimulation=13). In contrast, the 10 μg/m1Azi dose is not statistically different from the control group (relative stimulation=18) until day 3. […] Compounds described herein, such a Soli, affect lysosome and lipid accumulation and differentiation of HMGECs. The effect of Soli on lysosome appearance is faster than that of Azi.

The subject of another assay is CXCL8. As to the kind of experiment: LPS-induced CXCL8 (IL-8) production in PMA-differentiated U937 cells (ELISA). Type of assay: cell-based, human. Conditions: for inhibition of CXCL8 (IL-8) production (in words): solithromycin and telithromycin at 100 μM, clarithromycin at 333 μM. As for the experimental part: (§1) EXAMPLE. […] Cells. The human monocytic cell line U937 was obtained from the American Type Culture Collection (ATCC, Rockville, Md.). PBMCs from COPD patients were obtained from Brompton hospital and separated by AccuSPIN (Sigma-Aldrich). […] U937 cells were differentiated into adherent macrophage-like morphology by exposure to PMA (50 ng/ml) for 48 h in complete growth medium. Cell viability was assessed microscopically by trypan blue staining. Cell toxicity was determined by MTT assay as needed. This study was approved by the ethics committee of the Royal Brompton Hospitals, and all subjects gave written informed consent. Cytokine ELISA. TNFα and IL-8 concentrations in the supernatant of cell cultures were determined by sandwich ELISA according to the manufacturer's instructions (R&D Systems Europe, Abingdon, UK). Statistical analysis. The results were expressed as the mean±SEM. Comparisons of data in two groups were performed using the Student's t test or the Wilcoxon signed rank test. Multiple comparisons were made by one-way ANOVA with post hoc test (Dunnett's) as appropriate. The difference was considered significant at p<0.05. […] Anti-inflammatory effects of solithromycin in U937 cells.

For the next assay, the system named is MMP9. Briefly: MMP9 activity in PMA-stimulated U937 cells (gelatin zymography). Conditions: PMA stimulation. The format is cell-based, human. As for the experimental part:
EXAMPLE. […] Cells. The human monocytic cell line U937 was obtained from the American Type Culture Collection (ATCC, Rockville, Md.). PBMCs from COPD patients were obtained from Brompton hospital and separated by AccuSPIN (Sigma-Aldrich). […] U937 cells were differentiated into adherent macrophage-like morphology by exposure to PMA (50 ng/ml) for 48 h in complete growth medium. Cell viability was assessed microscopically by trypan blue staining. Cell toxicity was determined by MTT assay as needed. This study was approved by the ethics committee of the Royal Brompton Hospitals, and all subjects gave written informed consent. Zymography. MMP9 enzyme activity was measured by gelatin zymography. […] After electrophoresis, gels were incubated and rinsed with Novex® zymogram renaturing buffer (Invitrogen) for 30 min at room temperature. The gels were then rinsed in Novex® zymogram developing buffer (Invitrogen) for 30 min at room temperature prior to overnight incubation in the developing buffer at 37° C. After incubation, the gels were stained using a Colloidal Blue Staining Kit (Invitrogen) to visualize the zymogen bands. Statistical analysis. The results were expressed as the mean±SEM. Comparisons of data in two groups were performed using the Student's t test or the Wilcoxon signed rank test. Multiple comparisons were made by one-way ANOVA with post hoc test (Dunnett's) as appropriate. The difference was considered significant at p<0.05.

The test system of another assay is TNFα. Briefly: LPS-induced TNFα production in PMA-differentiated U937 cells (ELISA). Type of assay: cell-based, human. Conditions: for inhibition of TNFα production (in words): solithromycin and telithromycin at 100 μM, clarithromycin at 333 μM. As for the experimental part:
as §1
(In an ELISA, binding on a coated surface is turned into a signal by an enzyme label.)

In the next assay the test system is phospholipase. Briefly: Phospholipase inhibition in other cell lines. The format is cell-based. Conditions: for IC50: read-out: IC50 for phospholipase inhibition, other cell lines.
The next assay concerns Mycoplasma hominis. As to the kind of experiment: MIC against Mycoplasma hominis. Type of assay: cell-based. Conditions: N 13.
In assay [2] the test system is Haemophilus parainfluenzae. As to the kind of experiment: MIC against Haemophilus parainfluenzae. Type of assay: cell-based. Conditions: N 11.

For orientation: MIC50 means the lowest concentration that inhibits either 50% of growth or 50% of the strains tested, depending on the study. Low readings indicate higher susceptibility, high ones lower susceptibility. Usually MIC90 stands for an inhibitory concentration at the 90% level, which refers to growth in some studies and to a panel of isolates in others. The compound `CCCCCCCCCC(=O)N[C@@H](Cc1c[nH]c2ccccc12)C(=O)N[C@H](CC(N)=O)C(=O)N[C@@H](CC(=O)O)C(=O)N[C@@H]1C(=O)NCC(=O)N[C@@H](CCCN)C(=O)N[C@@H](CC(=O)O)C(=O)N[C@H](C)C(=O)N[C@@H](CC(=O)O)C(=O)NCC(=O)N[C@H](CO)C(=O)N[C@@H]([C@H](C)CC(=O)O)C(=O)N[C@@H](CC(=O)c2ccccc2N)C(=O)O[C@@H]1C` [Daptomycin] registered an MIC50 with P. acnes (P. acnes) of 2 µg/mL (≈ 1.23 µM). Also, in the assay with P. acnes (P. acnes (51 species)), the MIC90 turned out to be 4 µg/mL (≈ 2.47 µM) and the “MIC Range” value lay in the range of 0.5 to 8 µg/mL.
As to `CC[C@H]1OC(=O)[C@H](C)C(=O)[C@H](C)[C@@H](O[C@@H]2O[C@H](C)C[C@H](N(C)C)[C@H]2O)[C@](C)(OC/C=C/c2cnc3ccccc3c2)C[C@@H](C)C(=O)[C@H](C)[C@H]2NC(=O)O[C@@]21C` [cethromycin], the “meibomian gland differentiation (in words)” value in assay [1] was “do not cause clinically significant meibomian gland differentiation”.
Broadly, the IC50 is the concentration that gives 50% inhibition. Take `CC[C@H]1OC(=O)[C@H](C)[C@@H](O[C@H]2C[C@@](C)(OC)[C@@H](O)[C@H](C)O2)[C@H](C)[C@@H](O[C@@H]2O[C@H](C)C[C@H](N(C)C)[C@H]2O)[C@](C)(OC)C[C@@H](C)C(=O)[C@H](C)[C@@H](O)[C@]1(C)O` [Clarithromycin, clarithromycin]: the “meibomian gland differentiation (in words)” value in assay [1] is “do not cause clinically significant meibomian gland differentiation”. The IC50 stood at 506 ± 44 µM with CXCL8 (Homo sapiens, U-937, LPS, PMA-differentiated U937 cells, read-out: IC50 on CXCL8 release) and 426 ± 63.9 µM in the assay on TNFα (Homo sapiens, U-937, LPS, PMA-differentiated U937 cells, read-out: IC50 on TNFα release). In addition, the “inhibition of CXCL8 (IL-8) production (in words)” value (“inhibition of CXCL8” below) in the assay on CXCL8 was “modest effects”. Besides, in the assay with MMP9, the “inhibitory effects on MMP9 activity, lower than solithromycin” value was found to be 10 fold. The “inhibition of TNFα production (in words)” value in the assay on TNFα is “modest effects”.
On to Penicillin, for which, in the assay with P. acnes (P. acnes), the “MIC 50%” value was ≤0.03 µg/mL. In addition, in the assay on P. acnes (P. acnes (51 species)), the “MIC 90%” value was found to be 0.06 µg/mL and the “MIC Range” value is ≤0.03-1^ μg/ml.
In the case of `CC[C@H]1OC(=O)[C@H](C)[C@@H](O[C@H]2C[C@@](C)(OC)[C@@H](O)[C@H](C)O2)[C@H](C)[C@@H](O[C@@H]2O[C@H](C)C[C@H](N(C)C)[C@H]2O)[C@](C)(O)C[C@@H](C)CN(C)[C@H](C)[C@@H](O)[C@]1(C)O` [Azithromycin, azithromycin], the “inhibition of CXCL8” value in the assay on CXCL8 is on record as “did not inhibit”. For the same compound, the “reversibility of phospholipase inhibition” value in the assay with phospholipase (after dosing is stopped) is on record as “remains unchanged for several days after dosing is stopped”. The IC50 in the assay with phospholipase was found to be 300 µM. Also, the “MIC Range” value in the assay on Mycoplasma hominis is on record as 0.5-4^ μg/mL; in assay [2], 0.5-2^ μg/mL. For the same compound, the “inhibitory effects on MMP9 activity, lower than solithromycin” value in the assay with MMP9 came to 10 fold. Moreover, in the assay on TNFα, the “inhibition of TNFα production (in words)” value is on record as “did not inhibit”.
In the assay on P. acnes (P. acnes), `CN[C@H](CC(C)C)C(=O)N[C@H]1C(=O)N[C@@H](CC(N)=O)C(=O)N[C@H]2C(=O)N[C@H]3C(=O)N[C@H](C(=O)N[C@H](C(=O)O)c4cc(O)cc(O)c4-c4cc3ccc4O)[C@H](O)c3ccc(c(Cl)c3)Oc3cc2cc(c3O[C@@H]2O[C@H](CO)[C@@H](O)[C@H](O)[C@H]2O[C@H]2C[C@](C)(N)[C@H](O)[C@H](C)O2)Oc2ccc(cc2Cl)[C@H]1O` [Vancomycin] yielded an MIC50 of 1 µg/mL (≈ 0.69 µM). Also, in the assay on P. acnes (P. acnes (51 species)), the MIC90 was 1 µg/mL (≈ 0.69 µM) and the “MIC Range” value lay within 0.12 to 1 µg/mL.
For the compound `CC[C@H]1OC(=O)[C@H](C)C(=O)[C@H](C)[C@@H](O[C@@H]2O[C@H](C)C[C@H](N(C)C)[C@H]2O)[C@](C)(OC)C[C@@H](C)C(=O)[C@H](C)[C@H]2N(CCCCn3cnc(-c4cccnc4)c3)C(=O)O[C@]12C` [Telithromycin], the “meibomian gland differentiation (in words)” value in assay [1] is on record as “do not cause clinically significant meibomian gland differentiation”. For the same compound, in the assay on CXCL8, the “inhibition of CXCL8” value is “did not inhibit”. Moreover, in the assay on TNFα, the “inhibition of TNFα production (in words)” value is “did not inhibit”.
For `CC[C@H]1OC(=O)[C@H](C)[C@@H](O[C@H]2C[C@@](C)(OC)[C@@H](O)[C@H](C)O2)[C@H](C)[C@@H](O[C@@H]2O[C@H](C)C[C@H](N(C)C)[C@H]2O)[C@](C)(O)C[C@@H](C)C(=O)[C@H](C)[C@@H](O)[C@]1(C)O` [Erythromycin], the “meibomian gland differentiation (in words)” value in assay [1] is reported as “do not cause clinically significant meibomian gland differentiation”. In addition, the “inhibition of CXCL8” value with CXCL8 is “did not inhibit”. In the assay with phospholipase, the IC50 is > 400 µM. In the assay on MMP9, the “effect on MMP9 activity (in words)” value is “no effect”. In addition, the “inhibition of TNFα production (in words)” value in the assay on TNFα is reported as “did not inhibit”.
